Assay results from patent US20120010164A1, “ANTIVIRAL AGENTS” (priority 2009, published 2012).

Assays:
[1] = test system: subgenomic HCV Replicon in hepatoma (HuH-7) cells; experiment: Assay for inhibition of HCV RNA replication (replicon, in situ ribonuclease protection SPA); assay type: cell-based; settings: Hepatitis C virus, HuH-7 replicon cells, activity ranges
Method: The compounds of the present invention were also evaluated for their ability to affect the replication of Hepatitis C Virus RNA in cultured hepatoma (HuH-7) cells containing a subgenomic HCV Replicon. The details of the assay are described below. This Replicon assay is a modification of that described in V. Lohmann, F. Korner, J-O. Koch, U. Herian, L. Theilmann, and R. Bartenschlager, “Replication of a Sub-genomic Hepatitis C Virus RNAs in a Hepatoma Cell Line,” Science 285:110 (1999).
The assay was an in situ Ribonuclease protection, Scintillation Proximity based-plate assay (SPA). 10,000-40,000 cells were plated in 100-200 μL of media containing 0.8 mg/mL G418 in 96-well cytostar plates (Amersham). Compounds were added to cells at various concentrations up to 100 μM in 1% DMSO at time 0 to 18 h and then cultured for 24-96 h. Cells were fixed (20 min, 10% formalin), permeabilized (20 min, 0.25% Triton X-100/PBS) and hybridized (overnight, 50° C.) with a single-stranded ^33P RNA probe complementary to the (+) strand NS5B (or other genes) contained in the RNA viral genome. Cells were washed, treated with RNAse, washed, heated to 65° C. and counted in a Top-Count Inhibition of replication was read as a decrease in counts per minute (cpm).
Human HuH-7 hepatoma cells, which were selected to contain a subgenomic replicon, carry a cytoplasmic RNA consisting of an HCV 5′ non-translated region (NTR), a neomycin selectable marker, an EMCV IRES (internal ribosome entry site), and HCV non-structural proteins NS3 through NS5B, followed by the 3′ NTR.

[2] = Cellular toxicity counterscreen (CC50); assay type: cell-based; settings: human, HuH-7 hepatoma cells
Method: The compounds of the present invention were also evaluated for cellular toxicity and anti-viral specificity in the counterscreens described below.

**Q.** What does the source list for `[N-]=[N+]=N[C@]1(CO)O[C@@H](n2ccc3c(N)ncnc32)[C@@H](F)[C@@H]1O` [Example 1, 7-(4-azido-2-deoxy-2-fluoro-β-D-arabinofuranosyl)-7H-pyrrolo[2,3-d]pyrimidin-4-amine]?
**A.** EC50 [1]: < 20 µM; CC50 [2]: > 100 µM

**Q.** Which EC50 [1] does the source give for `[N-]=[N+]=N[C@]1(CO)O[C@@H](n2cc(F)c3c(N)ncnc32)[C@@H](F)[C@@H]1O` [Example 2, 7-(4-azido-2-deoxy-2-fluoro-β-D-arabinofuranosyl)-5-fluoro-7H-pyrrolo[2,3-d]pyrimidin-4-amine] here?
**A.** 20 to 100 µM

**Q.** And the CC50 [2]?
**A.** > 100 µM

**Q.** Which results are given for `[N-]=[N+]=N[C@]1(CO)OC(n2cnc3c(N)ncnc32)[C@@H](F)[C@@H]1O` (stereo partly drawn) [Example 3, 9-(4-azido-2-deoxy-2-fluoro-b-D-arabinofuranosyl)-9H-purin-6-amine]?
**A.** EC50 [1]: > 100 µM; CC50 [2]: > 100 µM
